Values of other authors, collected in patent US20230061908A1 (priority 2020, published 2023).

Conditions: wide distribution to most tissues

Compound: CCC(CC)COC(=O)[C@H](C)N[P@](=O)(OC[C@H]1O[C@@](C#N)(c2ccc3c(N)ncnn23)[C@H](O)[C@@H]1O)Oc1ccccc1 [Remdesivir]
- crossing of the BBB (blood-brain barrier): does not cross the BBB
